Laboratory results taken from patent publication US12195506B2, “Immunotherapy with A*01 restricted peptides and combination of peptides against cancers and related methods” (Immatics Biotechnologies GmbH, priority 2018, dated 2025).

Tests used:
[1] = system: CD8+ T cells; experiment: In vitro T-cell priming assay with artificial antigen presenting cells loaded with peptide/MHC complexes and anti-CD28 antibody, pMHC multimer readout; format: cell-based, human; conditions: Table 10b; in vitro immunogenicity, peptide-specific multimer+ CD8+ T cells
Excerpt: In order to obtain information regarding the immunogenicity of the TUMAPs of the present invention, the inventors performed investigations using an in vitro T-cell priming assay based on repeated stimulations of CD8+ T cells with artificial antigen presenting cells (aAPCs) loaded with peptide/MHC complexes and anti-CD28 antibody.
In order to perform in vitro stimulations by artificial antigen presenting cells loaded with peptide-MHC complex (pMHC) and anti-CD28 antibody, the inventors first isolated CD8+ T cells from fresh HLA-A*02 leukapheresis products via positive selection using CD8 microbeads (Miltenyi Biotec, Bergisch-Gladbach, Germany) of healthy donors obtained from the University clinics Mannheim, Germany, after informed consent.
PBMCs and isolated CD8+ lymphocytes were incubated in T-cell medium (TCM) until use consisting of RPMI-Glutamax (Invitrogen, Karlsruhe, Germany) supplemented with 10% heat inactivated human AB serum (PAN-Biotech, Aidenbach, Germany), 100 U/ml Penicillin/100 μg/ml Streptomycin (Cambrex, Cologne, Germany), 1 mM sodium pyruvate (CC Pro, Oberdorla, Germany), 20 μg/ml Gentamycin (Cambrex). 2.5 ng/ml IL-7 (PromoCell, Heidelberg, Germany) and 10 U/ml IL-2 (Novartis Pharma, Nurnberg, Germany) were also added to the TCM at this step.
Generation of pMHC/anti-CD28 coated beads, T-cell stimulations and readout was performed in a highly defined in vitro system using four different pMHC molecules per stimulation condition and 8 different pMHC molecules per readout condition.
The purified co-stimulatory mouse IgG2a anti human CD28 Ab 9.3 (Jung et al., 1987) was chemically biotinylated using Sulfo-N-hydroxysuccinimidobiotin as recommended by the manufacturer (Perbio, Bonn, Germany). Beads used were 5.6 μm diameter streptavidin coated polystyrene particles (Bangs Laboratories, Illinois, USA).
pMHC used for positive and negative control stimulations were A*0201/MLA-001 (peptide […] (SEQ ID NO. 433) from modified Melan-A/MART-1) and A*0201/DDX5-001 ([…] from DDX5, SEQ ID NO. 434), respectively.
800.000 beads/200 μI were coated in 96-well plates in the presence of 4×12.5 ng different biotin-pMHC, washed and 600 ng biotin anti-CD28 were added subsequently in a volume of 200 μI. Stimulations were initiated in 96-well plates by co-incubating 1×10^6 CD8+ T cells with 2×10^5 washed coated beads in 200 μI TCM supplemented with 5 ng/ml IL-12 (PromoCell) for 3 days at 37° C. Half of the medium was then exchanged by fresh TCM supplemented with 80 U/ml IL-2 and incubating was continued for 4 days at 37° C. This stimulation cycle was performed for a total of three times. For the pMHC multimer readout using 8 different pMHC molecules per condition, a two-dimensional combinatorial coding approach was used as previously described (Andersen et al., 2012) with minor modifications encompassing coupling to 5 different fluorochromes. Finally, multimeric analyses were performed by staining the cells with Live/dead near IR dye (Invitrogen, Karlsruhe, Germany), CD8-FITC antibody clone SK1 (BD, Heidelberg, Germany) and fluorescent pMHC multimers. For analysis, a BD LSRII SORP cytometer equipped with appropriate lasers and filters was used. Peptide specific cells were calculated as percentage of total CD8+ cells. Evaluation of multimeric analysis was done using the FlowJo software (Tree Star, Oregon, USA). In vitro priming of specific multimer+CD8+ lymphocytes was detected by comparing to negative control stimulations.

[2] = biological target: HLA-A*01:01 (Homo sapiens, UniProt P04439, A114D/A174V/A182V/D101N/D185E/E176A/E190D/L180R/Q94H/R68K/S129P/T187R/V100A/V91M/W191G); experiment: MHC binding assay: UV-ligand exchange, ELISA of stabilized MHC complexes (peptide exchange yield); conditions: binding to HLA-A*01:01, UV-ligand exchange
How it was run: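 Peptide–MHC complexes were formed by UV-induced exchange of a photocleavable ligand for the test peptide. Exchange yield was measured by streptavidin-capture ELISA of 100-fold diluted complexes, detected with HRP anti-β2m at A450. Refolded HLA-A*02:01/MLA-001 monomers at 15-500 ng/ml served as standards.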

Row | Peptide exchange [2] | Substance | Wells positive [%] [1]
1 | +++ (>50 = +++) | 81 (YSDLHTPGRY; listed as Homo sapiens) [compound 81] | + (<20% = +)
2 | ++++ (>75% = ++++) | 60 (MTEKFLFLY; listed as Homo sapiens) [compound 60] | + (<20% = +)
3 | +++ (>50 = +++) | 387 (LMEKEDYHSLY; listed as Homo sapiens) [compound 387] | + (<20% = +)
4 | ++++ (>75% = ++++) | 73 (STDSASYY; listed as Homo sapiens) [compound 73] | + (<20% = +)

The remaining lines, values behind:

Row | Substance | Peptide exchange [2] | Wells positive [%] [1]
5 | 53 (YLEDRPLSQLY; listed as Homo sapiens) [compound 53] | ++++ (>75% = ++++) | + (<20% = +)
6 | 54 (EVDIHTIHY; listed as Homo sapiens) [compound 54] | +++ (>50 = +++) | + (<20% = +)
7 | 26 (ASDDFRSKY; listed as Homo sapiens) [compound 26] | +++ (>50 = +++) | ++ (20%-49% = ++)
8 | 27 (PSEVPVDSHY; listed as Homo sapiens) [compound 27] | ++++ (>75% = ++++) | + (<20% = +)
9 | 10 (VSERTGISY; listed as Homo sapiens) [compound 10] | +++ (>50 = +++) | + (<20% = +)
10 | 37 (MTSTEQSLYY; listed as Homo sapiens) [compound 37] | +++ (>50 = +++) | + (<20% = +)
